# Where two headings read alike, the source gives them in different places.
# Key:
# PVY [1] = test: Inactivating activity against PVY, half-leaf method on Chenopodium amaranticolor; type: in vivo, potato virus Y; conditions: Potato virus Y, in Chenopodium amaranticolor
# Method: (§1) According to previous reports,[46] PVY was infested in Nicotiana tabacum K326, and PVY was harvested and purified after showing severe infection symptoms on the leaves. The literature-guided protocol was followed to assess the curative, prophylactic, and […] potential of the target compounds under investigation.[15]
# Target compound solution (1,000 μg/mL) and 2 × virus solution were combined in equal quantities and incubated for 30 min. Evenly distribute emery onto the leaf blades, and apply the mixture of virus and compound solution onto the right side of C. amaranticolor leaf blades. Following this, an identical quantity of a 1× virus solution was applied to the untreated side of the leaf. Following a duration of 1.5 h, the emery residue present on the leaf surface was removed using a rinsing process utilizing water. The plants were incubated within a controlled greenhouse environment, maintaining a consistent temperature of 25°C. After 5−7 days, they proceeded to statistics the number of necrotic spots on the leaves. For each chemical, triplicate experiments were undertaken, and the average percentage of inhibition was subsequently determined.
# PVY [2] = test: Curative activity against PVY, half-leaf method on Chenopodium amaranticolor; type: in vivo; conditions: Potato virus Y, in Chenopodium amaranticolor; 500 μg/mL; Chenopodium amaranticolor leaves; average of three replicates
# Text: as §1
# To assess the curative effectiveness against PVY, a uniform layer of 200–300 mesh emery was applied to the leaves of C. amaranticolor, followed by rubbing with a virus solution. For 1.5 h, then the emery was washed off with water. After the leaves naturally dried, a 500 μg/mL solution of the test compound was carefully applied to one side of the leaf, while the opposite side received a 1% Tween 80 solution as a control. The plants were subsequently incubated in a greenhouse maintained at 25°C. After 5−7 days, the presence of necrotic spots on the leaves was recorded, with each compound tested on three replicate plants. The average inhibition rate was determined by analyzing the data from these replications.
# PVY [3] = test: Protective activity against PVY, half-leaf method on Chenopodium amaranticolor; type: in vivo; conditions: Potato virus Y, in Chenopodium amaranticolor; 500 μg/mL; Chenopodium amaranticolor leaves; average of three replicates
# Method: as §1
# A 500 μg/mL solution of the targeted compound was delicately applied to one side of C. amaranticolor leaves, while the other side was treated with a 1% Tween 80 aqueous solution. The plants were positioned in a greenhouse set at 25°C. Following a 24 h period, the entire leaf surface was inoculated with PVY by uniformly distributing 200–300 mesh emery. After 1.5 h, the emery was washed off with water, and the plants were returned to the greenhouse. After 5–7 days, the number of necrotic spots was tallied, with the assessment based on the greenhouse population. Each compound was tested in triplicate, and the average inhibition rate was subsequently calculated.
# [4] = Chenopodium amaranticolor leaves, read-out: EC50 for inactivating activity
# [5] = inactivating activity, Table S1, read-out: Experimental pEC50 (converted)
EC50 (PVY [1]; [4]),EC50 (PVY [1]; [5]),melting point,SMILES,inhibition at 500 µg/mL (PVY [2]),inhibition at 500 µg/mL (PVY [3])
516 ± 9 µg/mL,991 µM,113 to 115 °C,CC(C)=CCCC1(C)C=Cc2c(ccc(/C=N/c3ccc(NS(=O)(=O)c4cccc(F)c4)cc3)c2O)O1 (stereo not drawn) [Compound C45],,
202 ± 3.8 µg/mL,438 µM,121 to 123 °C,CCc1ccc(S(=O)(=O)Nc2ccc(/N=C/c3ccc4c(c3O)C=CC(C)(C)O4)cc2)cc1 [Compound C18],,
630 ± 11.2 µg/mL,1170 µM,80 to 82 °C,CC(C)=CCCC1(C)C=Cc2c(ccc(/C=N/c3ccc(NS(=O)(=O)c4c(F)cccc4F)cc3)c2O)O1 (stereo not drawn) [Compound C47],,
688 ± 17.2 µg/mL,1350 µM,161 to 163 °C,CC1(C)C=Cc2c(ccc(/C=N/c3ccc(NS(=O)(=O)c4cccc(Br)c4)cc3)c2O)O1 [Compound C16],60 to 70%,60 to 70%
557 ± 14.3 µg/mL,1190 µM,189 to 191 °C,CC1(C)C=Cc2c(ccc(/C=N/c3ccc(NS(=O)(=O)c4cccc(Cl)c4)cc3)c2O)O1 [Compound C36],60 to 70%,60 to 70%
90.3 ± 7.1 µg/mL,202 µM,152 to 154 °C,Cc1cccc(S(=O)(=O)Nc2ccc(/N=C/c3ccc4c(c3O)C=CC(C)(C)O4)cc2)c1 [Compound C27],60 to 70%,60 to 70%
492 ± 11.2 µg/mL,1040 µM,137 to 139 °C,Cc1cc(C)c(S(=O)(=O)Nc2ccc(/N=C/c3ccc4c(c3O)C=CC(C)(C)O4)cc2)c(C)c1 [Compound C19],,
512 ± 11 µg/mL,944 µM,97 to 99 °C,CC(C)=CCCC1(C)C=Cc2c(ccc(/C=N/c3ccc(NS(=O)(=O)c4ccc(Cl)s4)cc3)c2O)O1 (stereo not drawn) [Compound C43],,
751 ± 19.4 µg/mL,1500 µM,148 to 150 °C,CC1(C)C=Cc2c(ccc(/C=N/c3ccc(NS(=O)(=O)c4cc(Cl)ccc4Cl)cc3)c2O)O1 [Compound C14],,
310 ± 8.6 µg/mL,713 µM,150 to 152 °C,CC1(C)C=Cc2c(ccc(/C=N/c3ccc(NS(=O)(=O)c4cccnc4)cc3)c2O)O1 [Compound C9],,
139 ± 3.2 µg/mL,272 µM,170 to 172 °C,CC1(C)C=Cc2c(ccc(/C=N/c3ccc(NS(=O)(=O)c4ccccc4Br)cc3)c2O)O1 [Compound C33],,
88.3 ± 4 µg/mL,188 µM,191 to 193 °C,CC1(C)C=Cc2c(ccc(/C=N/c3ccc(NS(=O)(=O)c4c(F)cccc4F)cc3)c2O)O1 [Compound C32],60 to 70%,60 to 70%
803 ± 12.3 µg/mL,1600 µM,123 to 125 °C,CC1(C)C=Cc2c(ccc(/C=N/c3ccc(NS(=O)(=O)c4cccc(C(F)(F)F)c4)cc3)c2O)O1 [Compound C35],,
397.1 ± 2.3 µg/mL,877 µM,195 to 197 °C,Cc1noc(C)c1S(=O)(=O)Nc1ccc(/N=C/c2ccc3c(c2O)C=CC(C)(C)O3)cc1 [Compound C39],,
531 ± 20.7 µg/mL,1330 µM,147 to 149 °C,CC1(C)C=Cc2c(ccc(/C=N/c3ccc(NS(=O)(=O)C4CC4)cc3)c2O)O1 [Compound C13],,
717 ± 17.8 µg/mL,1330 µM,138 to 140 °C,CC(C)=CCCC1(C)C=Cc2c(ccc(/C=N/c3ccc(NS(=O)(=O)c4cc(F)cc(F)c4)cc3)c2O)O1 (stereo not drawn) [Compound C48],,
255.7 ± 0.72 µg/mL,509 µM,132 to 134 °C,CC1(C)C=Cc2c(ccc(/C=N/c3ccc(NS(=O)(=O)c4ccc(C(F)(F)F)cc4)cc3)c2O)O1 [Compound C2],,
522 ± 8.1 µg/mL,916 µM,130 to 132 °C,CC(C)=CCCC1(C)C=Cc2c(ccc(/C=N/c3ccc(NS(=O)(=O)c4ccc(C(F)(F)F)cc4)cc3)c2O)O1 (stereo not drawn) [Compound C46],,
204 ± 7.1 µg/mL,402 µM,186 to 188 °C,CC1(C)C=Cc2c(ccc(C=Nc3ccc(NS(=O)(=O)CC45CCC(CC4=O)C5(C)C)cc3)c2O)O1 (stereo not drawn) [Compound C40],,
100 ± 5.7 µg/mL,222 µM,164 to 166 °C,CC1(C)C=Cc2c(ccc(/C=N/c3ccc(NS(=O)(=O)c4cccc(F)c4)cc3)c2O)O1 [Compound C7],,60 to 70%

EC50 (PVY [1]; [4]),EC50 (PVY [1]; [5]),melting point,SMILES,inhibition at 500 µg/mL (PVY [2]),inhibition at 500 µg/mL (PVY [3])
1020 µg/mL,2080 µM,161 to 163 °C,CC(=O)Nc1ccc(S(=O)(=O)Nc2ccc(/N=C/c3ccc4c(c3O)C=CC(C)(C)O4)cc2)cc1 [Compound C21],,
369 ± 9.9 µg/mL,667 µM,175 to 177 °C,CC1(C)C=Cc2c(ccc(/C=N/c3ccc(NS(=O)(=O)c4ccccc4F)cc3)c2O)O1 [Compound C8],,
605 ± 12.2 µg/mL,1290 µM,94 to 96 °C,CCCCCCCCS(=O)(=O)Nc1ccc(/N=C/c2ccc3c(c2O)C=CC(C)(C)O3)cc1 [Compound C3],,
553 ± 9.3 µg/mL,944 µM,75 to 77 °C,CC(C)=CCCC1(C)C=Cc2c(ccc(/C=N/c3ccc(NS(=O)(=O)c4ccc(Br)s4)cc3)c2O)O1 (stereo not drawn) [Compound C49],,
781 ± 15.3 µg/mL,1460 µM,115 to 117 °C,CC(C)=CCCC1(C)C=Cc2c(ccc(/C=N/c3ccc(NS(=O)(=O)c4ccc(Cl)cc4)cc3)c2O)O1 (stereo not drawn) [Compound C41],,
165 ± 8.7 µg/mL,366 µM,144 to 146 °C,CC1(C)C=Cc2c(ccc(/C=N/c3ccc(NS(=O)(=O)c4ccc(F)cc4)cc3)c2O)O1 [Compound C5],,
244 ± 10.2 µg/mL,521 µM,166 to 168 °C,CC1(C)C=Cc2c(ccc(/C=N/c3ccc(NS(=O)(=O)c4ccccc4Cl)cc3)c2O)O1 [Compound C25],,
882 ± 17.3 µg/mL,1710 µM,84 to 86 °C,CC(C)=CCCC1(C)C=Cc2c(ccc(/C=N/c3ccc(NS(=O)(=O)c4cccc(C)c4)cc3)c2O)O1 (stereo not drawn) [Compound C44],,
587 ± 9.9 µg/mL,1170 µM,130 to 132 °C,CC1(C)C=Cc2c(ccc(/C=N/c3ccc(NS(=O)(=O)c4ccccc4C(F)(F)F)cc3)c2O)O1 [Compound C22],,
168 ± 4.8 µg/mL,388 µM,134 to 136 °C,CC1(C)C=Cc2c(ccc(/C=N/c3ccc(NS(=O)(=O)c4ccccc4)cc3)c2O)O1 [Compound C17],,
976 ± 20 µg/mL,1950 µM,154 to 156 °C,CC1(C)C=Cc2c(ccc(/C=N/c3ccc(NS(=O)(=O)c4ccc(Cl)cc4Cl)cc3)c2O)O1 [Compound C31],,
834 ± 18.3 µg/mL,1610 µM,128 to 130 °C,CC1(C)C=Cc2c(ccc(/C=N/c3ccc(NS(=O)(=O)c4ccc(OC(F)(F)F)cc4)cc3)c2O)O1 [Compound C30],,
441 ± 5.2 µg/mL,951 µM,139 to 141 °C,"COc1ccc(S(=O)(=O)Nc2ccc(/N=C/c3ccc4c(c3O)C=CC(C)(C)O4)cc2)cc1 [Compound C1, (E) -N-(4-(((5-hydroxy-2,2-dimethyl-2H-chromen-6-yl)methylene)amino)phenyl) -4-methoxybenzenesulfonamide]",,
871 ± 17.3 µg/mL,1730 µM,211 to 213 °C,CC1(C)C=Cc2c(ccc(/C=N/c3ccc(NS(=O)(=O)c4cc(Cl)cc(Cl)c4)cc3)c2O)O1 [Compound C23],,
703 ± 25.3 µg/mL,1530 µM,152 to 154 °C,CC1(C)C=Cc2c(ccc(/C=N/c3ccc(NS(=O)(=O)c4cccc(C#N)c4)cc3)c2O)O1 [Compound C11],,
667 ± 20.1 µg/mL,1520 µM,148 to 150 °C,CC1(C)C=Cc2c(ccc(/C=N/c3ccc(NS(=O)(=O)c4cccs4)cc3)c2O)O1 [Compound C4],,
903 ± 14.3 µg/mL,1920 µM,180 to 182 °C,CC1(C)C=Cc2c(ccc(/C=N/c3ccc(NS(=O)(=O)c4cc(F)ccc4F)cc3)c2O)O1 [Compound C15],,
400 ± 7.5 µg/mL,836 µM,164 to 166 °C,CC1(C)C=Cc2c(ccc(/C=N/c3ccc(NS(=O)(=O)c4ccc([N+](=O)[O-])cc4)cc3)c2O)O1 [Compound C12],,
1000 µg/mL,2050 µM,142 to 144 °C,CC1(C)C=Cc2c(ccc(/C=N/c3ccc(NS(=O)(=O)c4ccc(C(C)(C)C)cc4)cc3)c2O)O1 [Compound C20],,
